Legend:
[1] = tested on: Human G-CSF-mobilized peripheral blood CD34+ cells; experiment: Expansion of CD34+/CD41+ megakaryocytic progenitors from mobilized peripheral blood CD34+ cells; format: cell-based; settings: 39° C. + PIC 35 nM; 14 days; SFEM + BS1; FIG. 5
Description: (§1) Human bone marrow and G-CSF-mobilized peripheral blood CD34+ cells were purchased from AllCells.
(§2) Human CD34+-enriched cells (purity 90%) were seeded in 24-well plates at 100 000 cells/mL in expansion medium consisting of either (1) StemSpan™ ACF (ACF; […] Technologies) supplemented with the OMPC cytokine cocktail (Robert et al., 2011), or (2) StemSpan™ SFEM ([…] Technologies) supplemented with the BS1 megakaryocyte expansion and differentiation cocktail (Cortin et al., 2005). OMPC consists of 35 ng/mL thrombopoietin (TPO; Feldan Therapeutics), 10 ng/mL stem cell factor (SCF; Peprotech), and 11 ng/mL human FMS-like tyrosine kinase 3 ligand (FLT3, Peprotech). […]
(§3) Cellular counts and viability were determined by adding Solution 18 (Acridine Orange and DAPI solution, ChemomMetec) and using NucleoCounter™ NC-250 for detection (ChemomMetec).
(§4) For cells expanded in conditions favoring differentiation towards the MK lineage, surface markers were detected using the following antibodies: CD34-FITC, CD41a-APC and CD42b-PE. […] All samples were analyzed on an Accuri™ C6 flow cytometer (BD Biosciences), and raw data were analyzed with FCS Express 5 Flow Research Edition software from at least 15 000 viable cell events acquired for each sample. […]
(§5) Cellular counts and viability were determined as described in Example 6.5.

[2] = tested on: aryl hydrocarbon receptor (AhR) pathway; settings: Fares et al., 2014; cited from earlier work
[3] = tested on: Human bone marrow CD34+ cells; experiment: Expansion of CD34+/CD41+ megakaryocytic progenitors from bone marrow CD34+ cells; format: cell-based; settings: 39° C. + PIC 35 nM; 14 days; SFEM + BS1; FIG. 6
Description: as §1, §2, §3, §4, §5

[4] = tested on: CD34+/CD45RA− mobilized peripheral blood cells; settings: Fares et al., 2014; cited from earlier work
[5] = tested on: Human CB CD34+-enriched cells; experiment: Culture of CB CD34+-enriched hematopoietic stem cells in conditions favoring self-renewal; format: cell-based; settings: for Percentage of phenotype CD34+ / Percentage of phenotype CD34+/CD38− / Percentage of phenotype CD34+/CD38−/CD45RA− / Percentage of phenotype CD34+/CD45RA− / Percentage of phenotype CD38− / Percentage of phenotype CD45RA−: 14 days
Description: Human cord blood (CB) was collected after obtaining written informed consent from donors, following our institutional Research Ethics Committee guidelines. Mononuclear cells (MNCs) were first separated over a Ficoll-Hypaque™ density gradient (GE Healthcare), then cryopreserved at −180° C. in Cryostor CS10™ medium ([…] Technologies). Thawed MNCs from six to eight CB were pooled before CD34 isolation. CB CD34+ cells were enriched by positive selection using the EasySep™ CD34 enrichment kit, according to the manufacturer's instructions ([…] Technologies).
Cultures were maintained in a humidified atmosphere with 5% CO2 at 37° C. or 39° C., as indicated in the Examples. Cells were diluted at 500 000 cells/mL with fresh medium every 3 to 4 days.
as §3
For cells expanded in conditions favoring self-renewal, surface markers were detected using the following antibodies: CD34-PE, CD45RA-FITC, and CD38-BV421. All antibodies were purchased from BD Biosciences, except for CD34-PE which was purchased from Immunotech. Labeling of aldehyde dehydrogenase (ALDH)-positive cells was performed using the ALDEFLUOR™ Kit ([…] Technologies), according to the manufacturer's instructions. 7AAD was used as a viability dye. All samples were analyzed on a FACS-Cy Flow ML system (Sysmex), and raw data were analyzed with FCS Express 5 Flow Research Edition software from at least 15 000 viable cell events acquired for each sample.
as §5

[6] = 37° C. + PIC 35 nM, ACF + CC110
[7] = 37° C. + PIC 35 nM, ACF + CC110 (Table 5)
[8] = 37° C. + PIC 35 nM, ACF + HM (Table 5)
[9] = 37° C. + PIC 35 nM, SFEM + CC110
[10] = 37° C. + PIC 35 nM, SFEM II + CC110
[11] = 37° C. + PIC 35 nM, SFEM II + HM
[12] = 39° C. + PIC 35 nM, ACF + CC110
[13] = 39° C. + PIC 35 nM, ACF + CC110 (Table 5)
[14] = 39° C. + PIC 35 nM, ACF + HM (Table 5)
[15] = 39° C. + PIC 35 nM, SFEM + CC110
[16] = 39° C. + PIC 35 nM, SFEM II + CC110
[17] = 39° C. + PIC 35 nM, SFEM II + HM

Cl.Cn1nnc(-c2ccc3c(c2)[nH]c2nc(Cc4ccccc4)nc(N[C@H]4CC[C@H](N)CC4)c23)n1 [PIC, (1r,4r)-N1-(2-benzyl-7-(2-methyl-2H-tetrazol-5-yl)-9H-pyrimido[4,5-b]indol-4-yl)cyclohexane-1,4-diamine hydrochloride]
combined use of mild hyperthermia and PIC on expansion of CD34+/CD41+ cells [1]: synergistic effect
suppression of the aryl hydrocarbon receptor (AhR) pathway [2]: without acting as suppressors
combined use of mild hyperthermia and PIC on expansion of CD34+/CD41+ cells [3]: synergistic effect
expansion of CD34+/CD45RA− mobilized peripheral blood cells (enriched in LT-HSCs) [4]: stimulate expansion
combined use of mild hyperthermia and PIC on expansion of CD34+/ALDH^Bright cells ([5]; 39° C. + PIC 35 nM, 21 days, ACF + HM, FIG. 29): synergistic expansion
Percentage of phenotype CD34+ [5, 6]: 48.9%
Percentage of phenotype CD34+/CD38− [5, 6]: 30.3%
Percentage of phenotype CD34+/CD38−/CD45RA− [5, 6]: 10%
Percentage of phenotype CD34+/CD45RA− [5, 6]: 16.36%
Percentage of phenotype CD38− [5, 6]: 14.8%
Percentage of phenotype CD45RA− [5, 6]: 59.2%
Percentage of phenotype CD34+ [5, 7]: 50.98%
Percentage of phenotype CD34+/CD45RA− [5, 7]: 11.83%
Percentage of phenotype CD45RA− [5, 7]: 76.09%
Percentage of phenotype CD34+ ([5]; 37° C. + PIC 35 nM, ACF + HM): 51.5%
Percentage of phenotype CD34+/CD38− ([5]; 37° C. + PIC 35 nM, ACF + HM): 32.4%
Percentage of phenotype CD34+/CD38−/CD45RA− ([5]; 37° C. + PIC 35 nM, ACF + HM): 14.7%
Percentage of phenotype CD34+/CD45RA− ([5]; 37° C. + PIC 35 nM, ACF + HM): 22.4%
Percentage of phenotype CD38− ([5]; 37° C. + PIC 35 nM, ACF + HM): 12.05%
Percentage of phenotype CD45RA− ([5]; 37° C. + PIC 35 nM, ACF + HM): 53.4%
Percentage of phenotype CD34+ [5, 8]: 44.62%
Percentage of phenotype CD34+/CD45RA− [5, 8]: 7.67%
Percentage of phenotype CD45RA− [5, 8]: 77.44%
Percentage of phenotype CD34+ [5, 9]: 42.68%
Percentage of phenotype CD34+/CD45RA− [5, 9]: 6.96%
Percentage of phenotype CD45RA− [5, 9]: 78.72%
Percentage of phenotype CD34+ ([5]; 37° C. + PIC 35 nM, SFEM + HM): 37.4%
Percentage of phenotype CD34+/CD45RA− ([5]; 37° C. + PIC 35 nM, SFEM + HM): 6.66%
Percentage of phenotype CD45RA− ([5]; 37° C. + PIC 35 nM, SFEM + HM): 75.74%
Percentage of phenotype CD34+ [5, 10]: 33.38%
Percentage of phenotype CD34+/CD45RA− [5, 10]: 6.09%
Percentage of phenotype CD45RA− [5, 10]: 77.73%
Percentage of phenotype CD34+ [5, 11]: 30.82%
Percentage of phenotype CD34+/CD45RA− [5, 11]: 6.11%
Percentage of phenotype CD45RA− [5, 11]: 77.27%
Percentage of phenotype CD34+ [5, 12]: 43.7%
Percentage of phenotype CD34+/CD38− [5, 12]: 24.2%
Percentage of phenotype CD34+/CD38−/CD45RA− [5, 12]: 14.1%
Percentage of phenotype CD34+/CD45RA− [5, 12]: 23.05%
Percentage of phenotype CD38− [5, 12]: 14.45%
Percentage of phenotype CD45RA− [5, 12]: 40.85%
Percentage of phenotype CD34+ [5, 13]: 43.73%
Percentage of phenotype CD34+/CD45RA− [5, 13]: 18.73%
Percentage of phenotype CD45RA− [5, 13]: 59.72%
Percentage of phenotype CD34+ ([5]; 39° C. + PIC 35 nM, ACF + HM): 40.95%
Percentage of phenotype CD34+/CD38− ([5]; 39° C. + PIC 35 nM, ACF + HM): 22.9%
Percentage of phenotype CD34+/CD38−/CD45RA− ([5]; 39° C. + PIC 35 nM, ACF + HM): 15.7%
Percentage of phenotype CD34+/CD45RA− ([5]; 39° C. + PIC 35 nM, ACF + HM): 24.8%
Percentage of phenotype CD38− ([5]; 39° C. + PIC 35 nM, ACF + HM): 12%
Percentage of phenotype CD45RA− ([5]; 39° C. + PIC 35 nM, ACF + HM): 35.2%
Percentage of phenotype CD34+ [5, 14]: 44.82%
Percentage of phenotype CD34+/CD45RA− [5, 14]: 17.68%
Percentage of phenotype CD45RA− [5, 14]: 59.67%
Percentage of phenotype CD34+ [5, 15]: 45.36%
Percentage of phenotype CD34+/CD45RA− [5, 15]: 12.23%
Percentage of phenotype CD45RA− [5, 15]: 70.13%
Percentage of phenotype CD34+ ([5]; 39° C. + PIC 35 nM, SFEM + HM): 41.95%
Percentage of phenotype CD34+/CD45RA− ([5]; 39° C. + PIC 35 nM, SFEM + HM): 12.39%
Percentage of phenotype CD45RA− ([5]; 39° C. + PIC 35 nM, SFEM + HM): 69.88%
Percentage of phenotype CD34+ [5, 16]: 37.9%
Percentage of phenotype CD34+/CD45RA− [5, 16]: 15.03%
Percentage of phenotype CD45RA− [5, 16]: 63.9%
Percentage of phenotype CD34+ [5, 17]: 37.56%
Percentage of phenotype CD34+/CD45RA− [5, 17]: 15.27%
Percentage of phenotype CD45RA− [5, 17]: 63.45%

Source: patent US11666600B2, “Methods for culturing and/or differentiating hematopoietic stem cells into progenitors and uses thereof” (HEMA-QUEBEC, priority 2015, dated 2023)
